Patent publication US8702927B2, “Multiple-electrode and metal-coated probes” (The Trustees Of The University Of Pennsylvania, priority 2009, dated 2014)
“And” between values parts separate entries of the source, which are not always exact repeats. Equal entries are not always repeated.

Tests used:
HT-22 cells = experiment: CNP-recorded membrane potential of HT-22 cells during ionic (K+) enrichment, current-clamp; type: cell-based, mouse; conditions: for depolarization of membrane potential: KCl added to cell bath; for time for cell to return to its RMP: after KCl
Source text: Because the cell membrane is highly permeable to potassium ions (K^+), an increase or decrease in extracellular K+ concentration will, respectively, cause a resting cell to depolarize (membrane potential becoming more positive) or hyperpolarize (membrane potential becoming more negative). Utilizing CNPs, variations in membrane potential were monitored over tens of minutes. FIG. 8A is a recording of membrane potential from an HT-22 cell during perfusion intervals with normal HBSS and K+-enriched HBSS (additional 5 mM K^+). […] After approximately 2 min at higher extracellular K^+, the cell was perfused with normal HBSS and the cell slowly returned to its RMP.
Next, a CNP was used to measure changes in membrane potential during repetitive extracellular administration of KCl [FIG. 8B]. After penetrating the cell, as indicated by the arrow in FIG. 8B, the CNP measured a stable RMP under normal HBSS perfusion (Emp=−68 mV). […] Under constant perfusion in normal HBSS, the membrane potential returned to its original value after […]. The results were reproducible with high fidelity.
FIG. 8C is a representation of potential variations as a function of time during the administration of HBSS and the varied K+-enrichment of HBSS (additional 5 and 15 mM K^+). […] As normal HBSS perfusion brought the bath back to its initial K+ concentration, the cell returned to its RMP in ˜90 seconds.
The mouse hippocampal cell line HT-22 was kindly provided by Dr. David Schubert (The Salk Institute, San Diego, Calif.). Cells were grown in Dulbecco's Modified Eagle Medium (DMEM, high glucose) supplemented with 10% fetal bovine serum (FBS) and 1% antibiotics. The cells were plated on 12 mm cover slips 48 hrs prior to the electrophysiology measurements. The cells on the cover slips were incubated in HBSS (with calcium and magnesium) at room temperature for 10 min prior to measurements. The cover slips were subsequently placed in an open diamond perfision bath (Warner Instruments Corp., RC-22C) positioned on an upright microscope (Nikon eclipse E600FN, 40× water-immersion lens, Burleigh Gibraltar fixed-stage platform) located atop a vibration-isolation table. Cells were routinely perfised with HBSS at a flow rate of 1.0 mllmin.
Membrane potential measurements were recorded with an Axon AxoClamp-2A amplifier equipped with a headstage for high resistance electrodes (Axon HS2-XO.OlMU) and Digidata 1322A digitizer (Axon Instruments/Molecular Devices, Sunnyvale, Calif.). Experimental protocols were controlled and data acquired by a personal computer using the Clampex 8.2 software (Axon Instruments). CNPs were inserted into a standard electrode holder until the metal wire of the holder came in contact with the inner carbon film of the CNP. A slight positive pressure was applied through the holder's perfixion port to keep external solution from filling the hollow CNP by capillarity. A micromanipulator (Narishige MHW-3) was used to manipulate and position the CNP electrodes during the electrophysiology measurements. All the electrical measurements were carried out versus an AgIAgCl reference electrode submerged in HBSS in discontinuous current clamp @CC) mode, at zero current, with no capacitance compensation. The CNP potential was nulled (+I-2 mV) with the amplifier offset potential during immersion in HBSS before all electrical measurements. Recorded electrical measurements were not adjusted to compensate for differences in extracellular and intracellular junction potentials.

GABAA receptor = experiment: CNP-recorded membrane potential of HT-22 cells during pharmacological stimulation (GABA, bicuculline), current-clamp; type: cell-based, mouse
Experimental: Y-aminobutyric acid (GABA), a principal inhibitory neurotransmitter in the mammalian central nervous system which acts as an agonist for the membrane-bound GABAA receptor, was administered. When GABA binds to the GABAA receptor, the cell hyperpolarizes as a result of C1-ion influx due to the opening of the ligand-gated C1-ion channel. However, the hyperpolarization can be blocked by perfusing cells with bicuculline (BIC), a competitive antagonist for the GABAA receptor which binds to the GABAA receptor and prevents it from opening even in the presence of GABA.
FIG. 10A illustrates how an HT-22 cell responded when GABA was added to the cell bath (12 mM GABA in bath, arrow).
FIG. 10B represents the opposing membrane responses to such stimuli over time.

SMILES | depolarization of membrane potential (HT-22 cells; additional 5 mM K+, RMP -57 mV, FIG. 8C) | depolarization of membrane potential (HT-22 cells; additional 15 mM K+, RMP -57 mV, FIG. 8C, FIG. 10B) | depolarization of membrane potential (HT-22 cells; additional 25 mM K+, RMP -68 mV, FIG. 8B) | time for cell to return to its RMP (HT-22 cells; additional 5 mM K+, normal HBSS perfusion) | time for cell to return to its RMP (HT-22 cells; additional 15 mM K+, HBSS perfusion) | hyperpolarization from the RMP (GABAA receptor; 12 mM GABA in bath, normal HBSS perfusion, FIG. 10A, FIG. 10B) | time for cell to return to its RMP (GABAA receptor; after 12 mM GABA, constant HBSS perfusion)
[Cl-].[K+] [KCl, Potassium chloride] | 10 mV | 30 mV and 25 mV | 40 mV | ~90 s | ~90 s and 60 s | – | –
NCCCC(=O)O [GABA, Y-aminobutyric acid] | – | – | – | – | – | 10 mV and 12 mV | 30 s and 60 s
